Measured values reported in paper PMC4351204, “Amyloid Precursor Protein Mediated Changes in Intestinal Epithelial Phenotype In Vitro” (PLoS ONE, 2015).

Experiments:
Caco-2 cells [1] = experiment: Cytokine ELISAs (IL-8, MCP-1, MDC, IL-6, TNFα) of media from stimulated Caco-2 cells; type: cell-based, human; settings: ELISA of media, normalized to protein, 6 samples
Caco-2 cells [2] = experiment: Aβ uptake assay with FITC labeled Aβ 1–40; type: in vitro ADME, human
Description: FITC labeled Aβ 1–40 was prepared according to the manufacturer’s protocol (rPeptide, Bogart, GA, USA). 500nM of the peptide was added to confluent cells in serum free DMEM/F12 for 4 hours in the absence or presence of 10ng/mL LPS. The media was then removed and extracellular peptide signal was quenched by rinsing cells with 0.25% trypan blue dissolved in PBS. The trypan blue incubation served to quench FITC-Aβ signal from any peptide that was associated with the extracellular plasma membrane surface or with the tissue culture plastic of the wells. Intracellular Aβ signal was then quantified using a fluorescent plate reader (480 nm excitation and 520 nm emission).
(§1) Fig 2 Caco-2 cells secreted and took up Aβ. […] The cells were rinsed with trypan blue to quench extracellular signal from FITC-Aβ on the cell surface or surface of the tissue culture dish and intracellular Aβ fluorescence was measured with a fluorescent plate reader (480 nm excitation and 520 nm emission) (B).

Caco-2 cells [3] = experiment: Cholesterol Uptake Cell-Based Assay (NBD Cholesterol); set-up: species or system human; settings: 40 min; for Cholesterol uptake: 8 samples
Description: Cholesterol was measured following the protocol provided in the Cholesterol Uptake Cell-Based Assay Kit from Cayman Chemical Company (Ann Arbor, Michigan USA). […] At the end of treatment, the plates were aspirated and cell-based assay buffer was added to each well and NBD Cholesterol uptake was quantified using a fluorescent plate reader (480 nm excitation and 520 nm emission).
Fig 4 Aβ and 22C11 agonist decreased cholesterol uptake whereas the sAPP-derived peptide and SM-ϕ stimulated increased cholesterol uptake by Caco-2 cells. […] Representative data from 3 independent experiments are shown.

Caco-2 cells [4] = experiment: Aβ 1–40 and Aβ 1–42 ELISA of media from stimulated Caco-2 cells (Aβ secretion); type: cell-based, human; settings: overnight stimulation in serum free DMEM/F12; 10ng/mL LPS or 1μg/mL 22C11; 3 experiments in a replicate of 8
Description: Caco-2 cells were purchased from ATCC (Manassas, VA, USA). These are an epithelial-like cell line derived from a colorectal adenocarcinoma from a person. Caco-2 cells were maintained in DMEM/F12 (Gibco, Life Technologies, Grand Island, NY, USA) supplemented with 10% heat inactivated fetal bovine serum (FBS), 5% donor horse serum (Serum Source International, Charlotte, NC, USA) and antibiotics (0.05mg penicillin/0.05mg streptomycin/0.01mg neomycin/mL) (Sigma-Aldrich, St. Louis, MO, USA). Caco-2 cells were plated and allowed to grow to confluency before removing supplemented media and replacing with serum free DMEM/F12 with or without treatments. Following stimulation, Caco-2 cells were used for ELISA, Aβ uptake, cholesterol assays, immunoprecipitation, and western blot analysis.
The cells were lysed using ice cold RIPA buffer with protease inhibitors and 50U/mL DNAse1. […] The Bradford method was used to quantify protein concentrations for normalization of Aβ in the media and lysates were used for western blotting.
as §1

[5] = set-up: method as in PMID 12897403; settings: in vivo, iv; cited from earlier work
Caco-2 cells [6] = experiment: Western blotting of protein levels in stimulated Caco-2 cells; type: cell-based, human; settings: western blot, 3 samples
Description: Following stimulation, cells were lysed using ice cold radioimmunoprecipitation assay (RIPA) buffer (20mM Tris, pH 7.4, 150mM NaCl, 1mM Na3VO4, 10mM NaF, 1mM EDTA, 1mM EGTA, 0.2mM phenylmethylsulfonyl fluoride, 1% Triton, 0.1% SDS, and 0.5% deoxycholate) with protease inhibitors (AEBSF 1mM, Aprotinin 0.8μM, Leupeptin 21μM, Bestatin 36μM, Pepstatin A 15μM, E-64 14μM) and 50U/mL DNAse1(Amresco Inc, Solon, OH, USA). To remove insoluble material cell lysates were sonicated and centrifuged (14,000 rpm, 4°C, 10 min). The Bradford method was used to quantify protein concentrations. Proteins were resolved by 7 or 10% sodium dodecyl sulfate-polyacrylamide gel electrophoresis (SDS-PAGE) and transferred to polyvinylidene difluoride membranes (PVDF) for western blotting using anti-APP (Y188), CD36, occludin, LFABP, FATP4, pSrc, cSrc, and GAPDH (loading control) antibodies. Antibody binding was detected with enhanced chemiluminescence (GE Healthcare, Piscataway, NJ). In some instances, blots were stripped in […], 10 min, 25°C, for reprobing. Western blots were quantified using Adobe Photoshop software. Optical densities of bands were normalized against their respective loading controls and averaged (+/-SD).
Fig 5 Aβ, APP, and CD36 stimulations selectively altered protein levels in Caco-2 cells.

HepG2 hepatocyte line = tested on: HepG2 hepatocyte line; set-up: method as in PMID 8898096; settings: Aβ 1–40 treatment of human HepG2 hepatocyte line; cited from earlier work

With lipopolysaccharide [LPS] the IL-8 cytokine secretion (Caco-2 cells [1]; 10ng/mL LPS, 24h) was “increased”, the TNFα cytokine secretion (Caco-2 cells [1]; 10ng/mL LPS, 24h) was “increased” and the “Effect on uptake of FITC Aβ 1–40 by Caco-2 cells” value (Caco-2 cells [2]; 10ng/mL LPS present with 500nM FITC Aβ 1–40, 4 hr) was “not affected”. For the same substance, the Cholesterol uptake (Caco-2 cells [3]; 10ng/mL LPS, 20μg/ml NBD Cholesterol in glucose free HBSS) was “increased” and the “Aβ secretion (Aβ 1–40 and Aβ 1–42 ELISA)” value (Caco-2 cells [4]) was “higher concentrations of Aβ 1–40 compared to Aβ 1–42 released”.
With “fluorescently labeled Aβ 1–40: FITC labeled Aβ 1–40 prepared according to the manufacturer's protocol (rPeptide)” the “Uptake of fluorescently labeled Aβ 1–40 into cells (intracellular fluorescence)” value (Caco-2 cells [2]; 500nM FITC Aβ 1–40, 4 hr, confluent Caco-2, serum free DMEM/F12, extracellular signal quenched with 0.25% trypan blue, fluorescent plate reader 480/520 nm, 3 experiments in a replicate of 8) was “could take up Aβ peptide”.
For “radiolabeled Aβ 1–40: radiolabeled Aβ 1–40 associated with chylomicron-like particles, literature study”, the transport into organs [5] is listed as “can be transported into diverse organs including adipose tissue and brain”.
For “Aβ 1–40: amyloid β 1–40 peptide purchased from rPeptide”, the IL-6 cytokine secretion (Caco-2 cells [1]; 1μM Aβ 1–40, 24h) was “increased”, the “protein levels of other proteins examined (besides occludin)” value (Caco-2 cells [6]; 1μM Aβ 1–40 overnight, compared to control untreated cells) was “no effect” and the occludin protein levels (Caco-2 cells [6]; overnight stimulation, 1μg/mL antibody or 1μM Aβ 1–40) was “decreased”. For the same substance, the “steady state levels of intracellular cholesterol, cholesterol esters, phospholipids, and triacylglycerol” value (HepG2 hepatocyte line) was “attenuate”, the Cholesterol uptake (Caco-2 cells [3]; 100nM, 1μM and 5μM Aβ 1–40 (all three concentrations), 20μg/ml NBD Cholesterol) was “decreased” and the “Cholesterol uptake, concentration comparison” value (Caco-2 cells [3]; 1μM Aβ 1–40 compared with 100nM and 5μM) was “most dramatic effect”.
